Broadly, the ED50 is the dose that gives a 50% effect, or the effect in half of the subjects. Broadly, the EC50 is the concentration giving half of the maximal effect.

We go through 1 molecule from patent US7750021B2, “Immunosuppressant compounds and compositions” (IRM LLC, priority 2003, dated 2010).

The test system of one assay is blood lymphocytes. Kind of assay: Measurement of circulating lymphocytes (blood lymphocyte depletion). The format is in vivo, Mice (C57b1/6 male). The settings on record: Mus musculus, po, mice, orally by gavage, blood collected 6 and 24 hours after administration, read-out: ED50, effective dose required displaying 50% of blood lymphocyte depletion. As for the experimental part: Measurement of circulating lymphocytes: Compounds are dissolved in DMSO and diluted to obtain a final concentration of 4% DMSO (v/v, final concentration) and then further diluted in a constant volume of Tween80 25%/H2O, v/v. Tween80 25%/H2O (200 μl), 4% DMSO, and FTY720 (10 μg) are included as negative and positive controls, respectively. Mice (C57b1/6 male, 6-10 week-old) are administered 250-300 μL of compound solution orally by gavages under short isoflurane anesthesia.
Blood is collected from the retro-orbital sinus 6 and 24 hours after drug administration under short isoflurane anesthesia. Whole blood samples are subjected to hematology analysis. Peripheral lymphocyte counts are determined using an automated analyzer. Subpopulations of peripheral blood lymphocytes are stained by fluorochrome-conjugated specific antibodies and analyzed using a fluorescent activating cell sorter (Facscalibur). Two mice are used to assess the lymphocyte depletion activity of each compound screened. The result is an ED50, which is defined as the effective dose required displaying 50% of blood lymphocyte depletion.

For assay [1], the system named is EDG-3, EDG-5, EDG-6 and EDG-8. Nature of the assay: EDG-3, -5, -6 and -8 GTP [γ-35S] binding assays (selectivity versus EDG-1). It counts as biochemical, human. The procedure:
(§1) A. In Vitro: GPCR Activation Assay Measuring GTP [γ-^35S] Binding to Membranes Prepared from CHO Cells Expressing Human EDG Receptors
Solutions of test compounds ranging from 10 mM to 0.01 nM are prepared in DMSO. S1P is diluted in 4% BSA solution as positive controls. The desired amount of membrane prep is diluted with ice-cold assay buffer (20 mM HEPES, pH 7.4, 100 mM NaCl, 10 mM MgCl2, 0.1% Fatty acid-free BSA, 5 μM GDP) and vortexed well. 2 μl or less of compound is distributed into each well of a round-bottom 96-well polystyrene assay plate, followed by addition of 100 μl of diluted membranes (3-10 μg/well) and kept on ice until the addition of hot GTPγS. [^35S]-GTPγS is diluted 1:1000 (v/v) with cold assay buffer and 100 μl is added into each well. The reaction is carried out at room temperature for 90 minutes before the membranes are harvested onto Perkin-Elmer Unifilter® GF/B-96 filter plate using a Packard Filtermate Harvester. After several washes with wash buffer (20 mM HEPES, pH 7.4, 100 mM NaCl, 10 mM MgCl2), and a rinse with 95% ethanol, the filter is dried in a 37° C. oven for 30 minutes. MicroScint-20 is added and the plate sealed for scintillation counting on TopCount. EC50 values are obtained by fitting the GTP [γ-^35S] binding curves (raw data) with the dose response curve-fitting tool of GraphPad Prism. […]

A further assay has as its target T1, human EDG-1 (Homo sapiens, UniProt P21453).
T1 construct: c-myc (N); expressed in transfected cells
Nature of the assay: EDG-1 (S1P1) GTP [γ-35S] binding assay. It counts as biochemical. The conditions noted are these: GTP [γ-35S] binding to membranes from CHO cells expressing human EDG-1. As for the experimental part:
as §1
EDG-1 (S1P1) GTP [γ-^35S] binding assay: Homogenized membranes are prepared from CHO cell clones stably expressing a human EDG-1 N-terminal c-myc tag. Cells are grown in suspension in two 850 cm^2 roller bottles for three or fours days before harvesting. The cells are centrifuged down, washed once with cold PBS, and resuspended in ≦20 ml of Buffer A (20 mM HEPES, pH 7.4, 10 mM EDTA, EDTA-free complete protease inhibitor cocktail [1 tablet/25 ml]). The cell suspension is homogenized on ice, using a Polytron homogenizer at 30000 rpm at three intervals of 15 seconds each. The homogenate is first centrifuged at 2000 rpm on a tabletop low speed centrifuge for 10 minutes. The supernatant, after passing through a cell strainer, is then re-centrifuged at 50,000×g for 25 minutes at 4° C. The pellet is resuspended into buffer B (15% glycerol, 20 mM HEPES, pH 7.4, 0.1 mM EDTA, EDTA-free complete protease inhibitor cocktail [1 tablet/10 ml]). Protein concentration of the prep is determined using the BCA Protein Assay kit (Pierce) using BSA as standard. The membranes are aliquoted and kept frozen at −80° C.
Solutions of test compounds ranging from 10 mM to 0.01 nM are prepared in DMSO. S1P is diluted in 4% BSA solution as positive controls. […]

T1 sequence (P21453 whole entry): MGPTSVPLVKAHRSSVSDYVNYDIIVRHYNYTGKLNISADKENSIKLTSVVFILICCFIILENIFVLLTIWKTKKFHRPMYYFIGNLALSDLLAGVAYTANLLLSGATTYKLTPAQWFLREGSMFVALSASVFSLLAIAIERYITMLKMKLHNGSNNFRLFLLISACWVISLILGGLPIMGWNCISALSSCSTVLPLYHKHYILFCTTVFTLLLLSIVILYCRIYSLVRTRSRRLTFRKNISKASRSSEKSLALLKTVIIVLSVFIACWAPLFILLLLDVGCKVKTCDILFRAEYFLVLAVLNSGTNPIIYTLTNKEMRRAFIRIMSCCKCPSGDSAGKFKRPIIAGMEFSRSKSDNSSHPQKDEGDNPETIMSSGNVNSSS

For `O=C(O)CCNCc1ccc2sc(-c3ccc(-c4ccccc4)c(C(F)(F)F)c3)cc2c1` [Example 1, 3-{[2-(2-Trifluoromethyl-biphenyl-4-yl)-benzo[b]thiophen-5-ylmethyl]-amino}-propionic acid], the ED50 in the assay with blood lymphocytes was found to be 0.2 mg/kg. The “selective for EDG-1 compared to one or more of the other receptors including EDG-3, EDG-5, EDG-6 and EDG-8” value in assay [1] is recorded as “at least 1000 fold”. The same molecule returned an EC50 at human EDG-1 of 600 pM.
